# Literature values, collected in patent publication US20160045465A1, “THERAPEUTIC FORMULATIONS FOR THE TREATMENT OF COLD AND FLU-LIKE SYMPTOMS” (Kingsway Pharmaceuticals Inc., priority 2007, published 2016).
# Where a name gives a salt, the structure may show the parent alone. Read-outs that look alike come from different tables or passages of the source.
# Experiments:
# [1] = in vivo
# [2] = not given; remark: listed apart in the source
# [3] = children, ibuprofen suspension, oral
# [4] = oral, 30 mg as tablets or oral solution
smiles,measurement,setting,value
"CC(C)Cc1ccc(C(C)C(=O)O)cc1 (centres unmarked) [ibuprofen, 2-[4-(2-methylpropyl)phenyl]propanoic acid]",onset of antipyretic effect,fever; [3],≤ 1 h
same,time of peak antipyretic effect,fever; [3],2 to 4 h
same,duration of antipyretic effect,fever; single ibuprofen suspension doses of 10-mg/kg,up to 8 hours
same,time to reach maximal plasma concentration,conventional tablets,approximately 120 minutes
same,time until excretion is essentially complete,following oral administration,≤ 24 h
same,fraction of an oral dose absorbed from the GI tract,"in vivo, po",Approximately 80%
same,reduction of peak plasma concentrations when administered with food,with food,30-50%
same,change of time to achieve peak plasma concentrations when administered with food,"with food, given as 'reduced by'",30 to 60 min
CNC[C@H](O)c1cccc(O)c1 [phenylephrine],duration of nasal decongestion,nasal congestion; oral phenylephrine,2 to 4 h
same,onset of nasal decongestion,nasal congestion; oral phenylephrine,15 to 20 min
same,efficacy compared with pseudoephedrine,[1],less efficacious than pseudoephedrine
same,elimination half-life,in vivo,2 to 3 h
same,bioavailability following oral administration,oral,approximately 38%
same,time of peak serum concentrations,oral,0.75 to 2.0 h
CN[C@@H](C)[C@@H](O)c1ccccc1 [pseudoephedrine hydrochloride],duration of nasal decongestion,nasal congestion; 120 mg in extended-release capsules,up to 12 hours
same,duration of nasal decongestion,nasal congestion; oral administration of 60 mg,8 h
same,duration of nasal decongestion,nasal congestion; [4],4 to 6 h
same,onset of nasal decongestion,nasal congestion; [4],≤ 30 min
CN[C@@H](C)[C@@H](O)c1ccccc1 [pseudoephedrine],time to peak plasma concentrations,60-mg dose as an oral solution,1.39 to 2.0 h
same,time to peak plasma concentrations,120-mg dose as an oral solution,1.84 to 1.97 h
same,time to peak plasma concentrations,extended-release products,3.8 to 6.1 h
same,fraction of a dose excreted unchanged in urine,in vivo,55-96%
same,elimination half-life,urinary pH 5,3 to 6 h
same,elimination half-life,urinary pH 5.8,5 to 8 h
same,elimination half-life,urinary pH 8,9 to 16 h
"CC(=O)Nc1ccc(O)cc1 [acetaminophen, N-(4-hydroxyphenyl)ethanamide]","fraction in the body undergoing conjugation (glucuronic acid, sulphuric acid)",in vivo,80-85%
same,plasma half-life,in vivo,1.2 to 3.0 h
same,time to peak plasma concentrations,oral administration of immediate release acetaminophen preparations,0.167 to 1 h
CNC[C@H](O)c1cccc(O)c1 [phenylephrine hydrochloride],pKa,[2],8.86
